From ChEMBL document CHEMBL1155836, “Discovery of imidazole carboxamides as potent and selective CCK1R agonists” (Bioorg Med Chem Lett, 2008)
Calls of active or inactive are those of the source. The rule behind the calls is not given here.

Target: T1, Cholecystokinin receptor type A (Homo sapiens) (UniProt P32238)
T1 sequence (whole entry): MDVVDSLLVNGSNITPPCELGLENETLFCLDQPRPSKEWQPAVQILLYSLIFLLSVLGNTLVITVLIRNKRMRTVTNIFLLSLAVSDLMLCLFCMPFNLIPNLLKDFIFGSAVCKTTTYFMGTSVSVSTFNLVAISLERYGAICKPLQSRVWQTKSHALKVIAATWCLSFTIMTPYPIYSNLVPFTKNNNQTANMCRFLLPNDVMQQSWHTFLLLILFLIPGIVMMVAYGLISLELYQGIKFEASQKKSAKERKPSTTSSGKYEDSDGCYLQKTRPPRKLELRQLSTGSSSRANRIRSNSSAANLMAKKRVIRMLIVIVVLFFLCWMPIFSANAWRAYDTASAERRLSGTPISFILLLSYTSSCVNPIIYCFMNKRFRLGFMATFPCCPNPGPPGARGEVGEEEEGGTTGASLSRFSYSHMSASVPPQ
Experiment: Agonist activity against human CCK1 receptor assessed as receptor activation at 10000 nM
Assay type: functional
Settings: not given

Row | Activity [%] | Compound
1 | 89 | CCOc1cccc(-n2cc(C(=O)N3CCN(c4cnc5ccccc5c4)CC3)nc2-c2ccccc2F)c1

Tested on: Mus musculus
Experiment: Reduction in overnight food intake in lean mouse at 0.3 mg/kg, po
Assay type: functional
Set-up: scale not given: the % may be the effect or the level left
Settings: not given

Row | Compound | Activity [%]
2 | CCOc1cccc(-n2cc(C(=O)N3CCN(c4cc(C(=O)O)c5ccccc5c4)CC3)nc2-c2ccc(C)cc2)c1.O=C(O)C(F)(F)F | 18
3 | CCOc1cccc(-n2cc(C(=O)N3CCN(c4cc(C(=O)[O-])c5ccccc5c4)CC3)nc2-c2ccc(C)cc2)c1.[Na+] | 29
4 | O=C(O)C(F)(F)F.O=C(O)c1cc(N2CCN(C(=O)c3cn(-c4ccc5c(c4)OCCO5)c(-c4ccc(F)cc4)n3)CC2)cc2ccccc12 | 16
5 | CCOc1cccc(-n2cc(C(=O)N3CCN(c4cc(C(=O)O)c5ccccc5c4)CC3)nc2-c2ccc(C)cc2F)c1.O=C(O)C(F)(F)F | 13

Tested on: not listed separately
Experiment: Volume of distribution in mouse at 1.0 mg/kg, iv and 10 mg/kg, po
Assay type: ADME, organism-based
Settings: in vivo

Row | Vd [L/kg] | Compound
6 | 0.56 | CCOc1cccc(-n2cc(C(=O)N3CCN(c4cc(C(=O)[O-])c5ccccc5c4)CC3)nc2-c2ccc(C)cc2)c1.[Na+]
7 | 0.73 | CCOc1cccc(-n2cc(C(=O)N3CCN(c4cc(C(=O)O)c5ccccc5c4)CC3)nc2-c2ccc(F)cc2)c1

Target: T2, Gastrin/cholecystokinin type B receptor (Homo sapiens) (UniProt P32239)
T2 sequence (whole entry): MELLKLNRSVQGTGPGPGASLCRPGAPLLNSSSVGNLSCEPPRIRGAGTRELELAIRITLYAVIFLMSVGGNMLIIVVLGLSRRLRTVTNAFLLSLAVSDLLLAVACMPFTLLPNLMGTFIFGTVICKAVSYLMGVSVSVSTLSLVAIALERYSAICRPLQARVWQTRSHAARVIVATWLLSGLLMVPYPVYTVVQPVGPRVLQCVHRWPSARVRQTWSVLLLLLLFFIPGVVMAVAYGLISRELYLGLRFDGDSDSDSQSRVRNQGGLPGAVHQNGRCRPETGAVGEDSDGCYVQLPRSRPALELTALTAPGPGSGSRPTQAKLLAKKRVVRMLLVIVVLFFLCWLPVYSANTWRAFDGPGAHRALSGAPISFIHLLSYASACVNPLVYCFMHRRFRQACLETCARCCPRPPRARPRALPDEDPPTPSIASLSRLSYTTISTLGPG
Experiment: Agonist activity against human CCK2 receptor assessed as receptor activation at 10000 nM
Assay type: functional
Settings: not given

Row | Activity [%] | Compound
8 | < 36 | CCOc1cccc(-n2cc(C(=O)N3CCN(c4cnc5ccccc5c4)CC3)nc2-c2ccccc2F)c1

Tested on: not listed separately
Experiment: Half life in mouse at 1.0 mg/kg, iv and 10 mg/kg, po
Assay type: ADME, organism-based
Settings: in vivo

Row | half-life [h] | Compound
9 | 3.4 | CCOc1cccc(-n2cc(C(=O)N3CCN(c4cc(C(=O)[O-])c5ccccc5c4)CC3)nc2-c2ccc(C)cc2)c1.[Na+]
10 | 2.7 | CCOc1cccc(-n2cc(C(=O)N3CCN(c4cc(C(=O)O)c5ccccc5c4)CC3)nc2-c2ccc(F)cc2)c1

Tested on: Mus musculus
Experiment: Reduction in overnight food intake in lean mouse at 3 mg/kg, po
Assay type: functional
Set-up: scale not given: the % may be the effect or the level left
Settings: not given

Row | Compound | Activity [%]
11 | CCOc1cccc(-n2cc(C(=O)N3CCN(c4cc(C(=O)O)c5ccccc5c4)CC3)nc2-c2ccc(C)cc2)c1.O=C(O)C(F)(F)F | 82
12 | CCOc1cccc(-n2cc(C(=O)N3CCN(c4cc(C(=O)[O-])c5ccccc5c4)CC3)nc2-c2ccc(C)cc2)c1.[Na+] | 78
13 | O=C(O)C(F)(F)F.O=C(O)c1cc(N2CCN(C(=O)c3cn(-c4ccc5c(c4)OCCO5)c(-c4ccc(F)cc4)n3)CC2)cc2ccccc12 | 96
14 | CCOc1cccc(-n2cc(C(=O)N3CCN(c4cc(C(=O)O)c5ccccc5c4)CC3)nc2-c2ccc(C)cc2F)c1.O=C(O)C(F)(F)F | 86

Tested on: Mus musculus
Experiment: Gallbladder emptying activity in mouse assessed as reduction of gallbladder weight at 0.001 mg/kg, po
Assay type: functional
Set-up: scale not given: the % may be the effect or the level left
Settings: not given

Row | Compound | Activity [%]
15 | CCOc1cccc(-n2cc(C(=O)N3CCN(c4cc(C(=O)O)c5ccccc5c4)CC3)nc2-c2ccc(C)cc2)c1.O=C(O)C(F)(F)F | 72
16 | O=C(O)C(F)(F)F.O=C(O)c1cc(N2CCN(C(=O)c3cn(-c4ccc5c(c4)OCCO5)c(-c4ccc(F)cc4)n3)CC2)cc2ccccc12 | 88
17 | CCOc1cccc(-n2cc(C(=O)N3CCN(c4cc(C(=O)O)c5ccccc5c4)CC3)nc2-c2ccc(C)cc2F)c1.O=C(O)C(F)(F)F | 77

Tested on: not listed separately
Experiment: Oral bioavailability in mouse at 10 mg/kg
Assay type: ADME, organism-based
Settings: in vivo

Row | bioavailability [%] | Compound
18 | 43 | CCOc1cccc(-n2cc(C(=O)N3CCN(c4cc(C(=O)[O-])c5ccccc5c4)CC3)nc2-c2ccc(C)cc2)c1.[Na+]
19 | 33 | CCOc1cccc(-n2cc(C(=O)N3CCN(c4cc(C(=O)O)c5ccccc5c4)CC3)nc2-c2ccc(F)cc2)c1

Target: T2, Gastrin/cholecystokinin type B receptor (Homo sapiens)
Experiment: Agonist activity against human CCK2 receptor
Assay type: functional
Settings: not given

Row | Activity | Compound
20 | inactive | CCOc1cccc(-n2cc(C(=O)N3CCN(c4cnc5ccccc5c4)CC3)nc2-c2ccccc2F)c1

Target: Cholecystokinin receptor type A (Mus musculus, UniProt O08786)
Sequence (O08786 whole entry, looked up): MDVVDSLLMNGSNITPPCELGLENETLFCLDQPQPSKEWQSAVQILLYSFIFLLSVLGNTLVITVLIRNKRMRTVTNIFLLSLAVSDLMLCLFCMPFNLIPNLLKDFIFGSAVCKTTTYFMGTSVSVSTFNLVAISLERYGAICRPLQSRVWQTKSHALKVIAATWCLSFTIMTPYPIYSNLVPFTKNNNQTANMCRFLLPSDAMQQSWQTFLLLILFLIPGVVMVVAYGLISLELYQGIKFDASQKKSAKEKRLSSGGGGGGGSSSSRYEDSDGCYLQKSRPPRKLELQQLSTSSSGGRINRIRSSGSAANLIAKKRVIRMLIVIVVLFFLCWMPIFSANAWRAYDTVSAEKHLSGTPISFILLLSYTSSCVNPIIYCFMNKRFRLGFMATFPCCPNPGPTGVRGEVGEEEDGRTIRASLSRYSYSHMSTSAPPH
Experiment: Agonist activity against mouse CCK1 receptor
Assay type: functional
Settings: not given

Row | Compound | EC50 [nM]
21 | CCOc1cccc(-n2cc(C(=O)N3CCN(c4cc(C(=O)[O-])c5ccccc5c4)CC3)nc2-c2ccc(C)cc2)c1.[Na+] | 0.78
22 | O=C(O)C(F)(F)F.O=C(O)c1cc(N2CCN(C(=O)c3cn(-c4ccc5c(c4)OCCO5)c(-c4ccc(F)cc4)n3)CC2)cc2ccccc12 | 0.14

The next lines start with the values.

Row | EC50 [nM] | Compound
23 | 1.3 | CCOc1cccc(-n2cc(C(=O)N3CCN(c4cc(C(=O)O)c5ccccc5c4)CC3)nc2-c2ccc(C)cc2)c1.O=C(O)C(F)(F)F
24 | 0.3 | CCOc1cccc(-n2cc(C(=O)N3CCN(c4cc(C(=O)O)c5ccccc5c4)CC3)nc2-c2ccc(C)cc2F)c1.O=C(O)C(F)(F)F

Target: T2, Gastrin/cholecystokinin type B receptor (Homo sapiens)
Experiment: Inhibition of human CCK2 receptor at 10000 nM
Settings: not given

Row | inhibition [%] | Compound
25 | < 24 | CCOc1cccc(-n2cc(C(=O)N3CCN(c4cnc5ccccc5c4)CC3)nc2-c2ccccc2F)c1

Target: T3, Gastrin/cholecystokinin type B receptor (Homo sapiens, UniProt P32239)
T3 sequence (P32239 whole entry): T2 sequence (whole entry)
Experiment: Inhibition of human CCK2 receptor
Settings: not given

Row | IC50 [nM] | Compound
26 | > 10000 | CCOc1cccc(-n2cc(C(=O)N3CCN(c4cc(C(=O)O)c5ccccc5c4)CC3)nc2-c2ccc(F)cc2)c1
27 | > 10000 | CCOc1cccc(-n2cc(C(=O)N3CCN(c4cnc5ccccc5c4)CC3)nc2-c2ccccc2F)c1

Target: T4, Cholecystokinin receptor type A (Homo sapiens, UniProt P32238)
T4 sequence (P32238 whole entry): T1 sequence (whole entry)
Experiment: Inhibition of human CCK1 receptor
Settings: not given

Row | IC50 [nM] | Compound
28 | 0.08 | CCOc1cccc(-n2cc(C(=O)N3CCN(c4cc(C(=O)O)c5ccccc5c4)CC3)nc2-c2ccc(F)cc2)c1
29 | 0.57 | CCOc1cccc(-n2cc(C(=O)N3CCN(c4cnc5ccccc5c4)CC3)nc2-c2ccccc2F)c1

Tested on: not listed separately
Experiment: (§1) Cmax in mouse at 1.0 mg/kg, iv and 10 mg/kg, po
Assay type: ADME, organism-based
Settings: in vivo

Row | Cmax [nM] | Compound
30 | 1100 | CCOc1cccc(-n2cc(C(=O)N3CCN(c4cc(C(=O)O)c5ccccc5c4)CC3)nc2-c2ccc(F)cc2)c1

Tested on: Mus musculus
Experiment: as §1
Assay type: ADME, organism-based
Settings: in vivo

Row | Cmax [nM] | Compound
31 | 4900 | CCOc1cccc(-n2cc(C(=O)N3CCN(c4cc(C(=O)[O-])c5ccccc5c4)CC3)nc2-c2ccc(C)cc2)c1.[Na+]

Tested on: not listed separately
Experiment: Clearance in mouse at 1.0 mg/kg, iv and 10 mg/kg, po
Assay type: ADME, organism-based
Settings: in vivo

Row | clearance [mL/min/kg] | Compound
32 | 3.1 | CCOc1cccc(-n2cc(C(=O)N3CCN(c4cc(C(=O)[O-])c5ccccc5c4)CC3)nc2-c2ccc(C)cc2)c1.[Na+]
33 | 6.4 | CCOc1cccc(-n2cc(C(=O)N3CCN(c4cc(C(=O)O)c5ccccc5c4)CC3)nc2-c2ccc(F)cc2)c1

Target: T4, Cholecystokinin receptor type A
Experiment: Agonist activity against human CCK1 receptor
Assay type: functional
Settings: not given

Row | EC50 [nM] | Compound
34 | 0.048 | CCOc1cccc(-n2cc(C(=O)N3CCN(c4cc(C(=O)O)c5ccccc5c4)CC3)nc2-c2ccc(F)cc2)c1
35 | 0.53 | CCOc1cccc(-n2cc(C(=O)N3CCN(c4cnc5ccccc5c4)CC3)nc2-c2ccccc2F)c1
